Calls of active or inactive are those of the source.
Tests used:
Aminopeptidase N = biological target: T1, Aminopeptidase N (Plasmodium falciparum FcB1/Columbia, UniProt O96935); test: P. falciparum M1AAP inhibitors, biochemical, fluorogenic H-Leu-NHMec substrate, 1536-well (AID 1445); parameters: species or system Plasmodium falciparum 3D7, 3D7
T1 sequence (O96935 whole entry): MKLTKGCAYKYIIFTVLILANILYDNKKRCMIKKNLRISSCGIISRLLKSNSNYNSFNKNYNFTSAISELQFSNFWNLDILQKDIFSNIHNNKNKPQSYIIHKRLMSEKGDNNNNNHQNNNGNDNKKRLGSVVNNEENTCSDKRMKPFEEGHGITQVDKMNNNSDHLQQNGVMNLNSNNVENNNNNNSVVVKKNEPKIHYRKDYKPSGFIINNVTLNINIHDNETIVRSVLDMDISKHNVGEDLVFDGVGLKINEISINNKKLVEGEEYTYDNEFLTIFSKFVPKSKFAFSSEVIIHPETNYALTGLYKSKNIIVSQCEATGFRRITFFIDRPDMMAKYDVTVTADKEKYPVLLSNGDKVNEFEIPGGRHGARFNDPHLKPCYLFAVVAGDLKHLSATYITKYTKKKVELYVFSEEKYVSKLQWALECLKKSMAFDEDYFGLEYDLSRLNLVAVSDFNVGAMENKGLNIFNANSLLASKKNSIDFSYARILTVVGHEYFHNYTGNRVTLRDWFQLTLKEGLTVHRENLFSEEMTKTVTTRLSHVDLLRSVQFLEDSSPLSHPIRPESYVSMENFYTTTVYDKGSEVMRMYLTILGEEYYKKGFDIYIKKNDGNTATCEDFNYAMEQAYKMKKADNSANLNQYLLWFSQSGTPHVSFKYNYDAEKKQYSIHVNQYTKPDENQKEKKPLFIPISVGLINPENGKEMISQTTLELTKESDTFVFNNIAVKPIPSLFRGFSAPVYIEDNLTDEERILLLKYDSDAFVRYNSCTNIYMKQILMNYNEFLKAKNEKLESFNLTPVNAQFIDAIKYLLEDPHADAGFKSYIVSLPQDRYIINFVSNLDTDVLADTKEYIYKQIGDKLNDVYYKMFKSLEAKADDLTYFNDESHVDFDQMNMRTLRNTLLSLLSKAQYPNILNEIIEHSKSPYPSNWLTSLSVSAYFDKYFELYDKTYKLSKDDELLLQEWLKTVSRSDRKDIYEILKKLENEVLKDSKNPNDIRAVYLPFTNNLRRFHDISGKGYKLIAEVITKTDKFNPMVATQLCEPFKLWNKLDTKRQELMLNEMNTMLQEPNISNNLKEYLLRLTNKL

[1] = biological target: T2, Short transient receptor potential channel 4 (Mus musculus, UniProt Q9QUQ5); test: mouse TRPC4 channel inhibitors, dose response, cell-based, HEK293 TRPC4/mu-opioid, Fluo-4 calcium (AID 434942); format: functional;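 also: potency of inhibitors blocking the TRPC4 calcium response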
T2 sequence (Q9QUQ5 whole entry): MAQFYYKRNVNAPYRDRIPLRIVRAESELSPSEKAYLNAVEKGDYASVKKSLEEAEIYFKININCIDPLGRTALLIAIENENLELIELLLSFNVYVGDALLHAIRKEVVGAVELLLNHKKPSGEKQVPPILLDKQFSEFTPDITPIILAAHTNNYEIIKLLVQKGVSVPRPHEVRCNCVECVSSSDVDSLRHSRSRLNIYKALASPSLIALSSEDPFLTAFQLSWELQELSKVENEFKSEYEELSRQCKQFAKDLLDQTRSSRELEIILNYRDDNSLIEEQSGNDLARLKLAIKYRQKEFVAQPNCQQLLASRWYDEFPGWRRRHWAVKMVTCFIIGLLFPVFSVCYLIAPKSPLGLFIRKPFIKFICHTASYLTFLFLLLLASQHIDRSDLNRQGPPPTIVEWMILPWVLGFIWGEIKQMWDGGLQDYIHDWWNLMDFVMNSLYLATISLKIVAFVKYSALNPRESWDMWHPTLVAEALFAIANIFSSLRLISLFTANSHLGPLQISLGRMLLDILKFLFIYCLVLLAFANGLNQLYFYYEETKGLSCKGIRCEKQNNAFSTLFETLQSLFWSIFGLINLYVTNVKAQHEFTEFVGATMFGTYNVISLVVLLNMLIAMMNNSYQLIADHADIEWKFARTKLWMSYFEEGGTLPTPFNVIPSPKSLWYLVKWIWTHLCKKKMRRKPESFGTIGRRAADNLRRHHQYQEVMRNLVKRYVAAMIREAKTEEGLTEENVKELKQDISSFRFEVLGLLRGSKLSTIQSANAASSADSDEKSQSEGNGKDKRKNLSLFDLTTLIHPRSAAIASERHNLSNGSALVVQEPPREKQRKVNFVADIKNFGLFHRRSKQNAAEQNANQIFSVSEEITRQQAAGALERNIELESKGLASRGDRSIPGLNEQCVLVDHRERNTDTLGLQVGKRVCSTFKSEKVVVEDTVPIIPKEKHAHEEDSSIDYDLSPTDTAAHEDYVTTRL

[2] = biological target: FAD-linked sulfhydryl oxidase ALR (Homo sapiens, UniProt P55789); test: inhibitors of human ALR sulfhydryl oxidase, dose response, biochemical, H2O2 detection, luminescence, cherry-pick (AID 493248)
[3] = biological target: T3, High affinity choline transporter 1 (Homo sapiens, UniProt Q9GZV3); test: CHT inhibitors, dose response, cell-based, 5-point CRC, membrane potential dye (AID 504840); format: functional
T3 sequence (Q9GZV3 whole entry): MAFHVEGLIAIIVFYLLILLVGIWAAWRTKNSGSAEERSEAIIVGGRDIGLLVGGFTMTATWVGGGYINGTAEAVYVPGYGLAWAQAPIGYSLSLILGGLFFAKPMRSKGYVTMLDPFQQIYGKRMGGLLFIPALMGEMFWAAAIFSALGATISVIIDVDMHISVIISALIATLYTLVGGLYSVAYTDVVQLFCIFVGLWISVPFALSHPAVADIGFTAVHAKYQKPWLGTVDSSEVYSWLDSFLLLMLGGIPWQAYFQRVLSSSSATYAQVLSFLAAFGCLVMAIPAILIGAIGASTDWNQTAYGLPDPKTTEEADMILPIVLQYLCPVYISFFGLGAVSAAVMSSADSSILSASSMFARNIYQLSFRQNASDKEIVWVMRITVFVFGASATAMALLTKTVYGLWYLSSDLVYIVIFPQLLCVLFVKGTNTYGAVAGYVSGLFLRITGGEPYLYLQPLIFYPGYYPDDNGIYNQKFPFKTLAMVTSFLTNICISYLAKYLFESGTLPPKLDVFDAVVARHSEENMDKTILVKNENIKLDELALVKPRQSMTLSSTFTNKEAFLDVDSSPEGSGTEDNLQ

Genome polyprotein = Genome polyprotein (dengue virus type 2, UniProt P29990); test: Dengue-2 NS5 methyltransferase inhibitors, primary screen, biochemical, confirmation dose response (AID 588689); format: functional
cells [4] = format: functional, cell-based
cells [5] = format: functional, cell-based; remark: listed apart in the source
[6] = biological target: T4, Heat shock factor protein 1 (Mus musculus, UniProt P38532); test: inhibition of MG132-induced HSE-luciferase signal, confirmation, cell-based, NIH3T3, luminescence, dose retest (AID 2382); format: functional;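 also: NIH3T3 fibroblasts with HSF1-driven luciferase reporter stressed by proteasome inhibitor MG132; luminescence from HSF1-driven luciferase expression after 8 hours of MG132 stress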
T4 sequence (P38532 whole entry): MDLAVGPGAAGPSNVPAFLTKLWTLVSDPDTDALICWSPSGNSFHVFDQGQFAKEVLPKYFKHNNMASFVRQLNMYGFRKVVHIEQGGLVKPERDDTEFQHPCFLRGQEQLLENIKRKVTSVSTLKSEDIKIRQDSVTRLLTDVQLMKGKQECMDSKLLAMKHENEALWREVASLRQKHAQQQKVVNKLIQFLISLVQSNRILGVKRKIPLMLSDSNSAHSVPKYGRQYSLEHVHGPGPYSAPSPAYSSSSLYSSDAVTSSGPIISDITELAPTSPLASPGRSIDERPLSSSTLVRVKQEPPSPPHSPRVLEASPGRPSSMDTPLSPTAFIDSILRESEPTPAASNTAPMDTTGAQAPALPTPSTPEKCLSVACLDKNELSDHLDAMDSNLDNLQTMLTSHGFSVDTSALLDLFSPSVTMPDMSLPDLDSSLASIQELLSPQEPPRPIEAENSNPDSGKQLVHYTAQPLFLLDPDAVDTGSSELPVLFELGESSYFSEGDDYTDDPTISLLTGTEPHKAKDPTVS

Sequence of FAD-linked sulfhydryl oxidase ALR (P55789 whole entry): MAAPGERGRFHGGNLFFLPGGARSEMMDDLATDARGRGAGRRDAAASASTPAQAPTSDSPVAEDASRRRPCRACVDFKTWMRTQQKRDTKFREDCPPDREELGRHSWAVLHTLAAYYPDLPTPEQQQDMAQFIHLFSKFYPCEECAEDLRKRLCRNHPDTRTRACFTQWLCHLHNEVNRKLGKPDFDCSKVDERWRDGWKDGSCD
Sequence of Genome polyprotein (P29990 2492-3391 limits assumed): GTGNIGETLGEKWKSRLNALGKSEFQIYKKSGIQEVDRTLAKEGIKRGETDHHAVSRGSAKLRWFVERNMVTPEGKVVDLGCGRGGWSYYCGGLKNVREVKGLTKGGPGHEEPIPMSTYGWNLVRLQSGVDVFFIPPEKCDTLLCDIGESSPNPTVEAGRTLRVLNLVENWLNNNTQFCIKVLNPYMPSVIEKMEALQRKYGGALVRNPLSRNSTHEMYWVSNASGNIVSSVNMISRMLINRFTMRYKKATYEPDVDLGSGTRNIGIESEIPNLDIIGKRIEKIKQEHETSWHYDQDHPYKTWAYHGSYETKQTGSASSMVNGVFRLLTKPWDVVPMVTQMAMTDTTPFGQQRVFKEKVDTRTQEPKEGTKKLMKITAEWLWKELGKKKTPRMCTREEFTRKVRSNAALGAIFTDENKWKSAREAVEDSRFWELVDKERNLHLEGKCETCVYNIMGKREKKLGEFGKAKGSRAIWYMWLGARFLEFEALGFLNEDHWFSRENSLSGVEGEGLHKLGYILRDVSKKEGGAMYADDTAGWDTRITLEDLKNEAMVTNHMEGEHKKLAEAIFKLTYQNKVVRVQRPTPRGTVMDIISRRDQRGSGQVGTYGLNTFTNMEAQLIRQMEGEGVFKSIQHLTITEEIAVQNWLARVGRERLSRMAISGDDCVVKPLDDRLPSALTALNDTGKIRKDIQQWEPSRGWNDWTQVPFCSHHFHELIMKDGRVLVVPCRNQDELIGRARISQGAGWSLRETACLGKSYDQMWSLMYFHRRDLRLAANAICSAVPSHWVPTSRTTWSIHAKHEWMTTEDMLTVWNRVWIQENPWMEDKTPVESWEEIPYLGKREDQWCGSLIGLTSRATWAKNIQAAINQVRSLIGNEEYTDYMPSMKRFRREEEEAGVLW

CCCCCCC(=O)N(O)C1CC(=O)N(c2ccccc2)C1=O (stereo not given)
IC50 (Aminopeptidase N): 66.5 µM (active)

c1ccc(Nc2[nH]nnc2-c2ccccc2)cc1
EC50 [1]: 1.88 µM (active) | AC50 [2]: > 100 µM (inactive)

CCC1=Nc2cc(C(=O)N3CCC4(CC3)OCCO4)ccc2Sc2ccc(C)cc21
EC50 [1]: 7.5 µM (active)

Cc1c(N2C(=O)C(O)=C(C(=O)c3ccc(Br)cc3)C2c2cccnc2)c(=O)n(-c2ccccc2)n1C (stereo not given)
IC50 (Aminopeptidase N): 38.1 µM (active)

S=C(NCCCN1CCOCC1)Nc1cccc(-c2nnc3n2CCCCC3)c1
IC50 [3]: 13.9 µM (active)

O=C(O)C(c1ccccc1)N1C(=O)/C(=C/c2cccs2)SC1=S (stereo not given)
IC50 (Genome polyprotein): 46.9 µM (active) | IC50 (Aminopeptidase N): 57.7 µM (active)

CN1CCN(c2ccc(NC(=O)c3ccc(Br)o3)cc2)CC1
EC50 [1]: 0.841 µM (active)

CC(C)=CCN1CCN(Cc2cn(C(C)C)c3ccccc23)CC1CCO (stereo not given)
IC50 [3]: 13.2 µM (active)

CCOC(=O)c1sc(NC(=O)CCN2CCN(C)CC2)c(C(=O)OCC)c1C
IC50 [3]: 14.5 µM (active)

O=C(CCc1ccccc1)Nc1ccnn1C1CCN(C/C=C/c2ccccc2)CC1
EC50 [1]: 1.5 µM (active) | EC50 (cells [4]): > 350 µM (not active) | EC50 (cells [5]): > 350 µM (not active)

COc1cccc(OC)c1OCCCCCc1c(C)n[nH]c1C
IC50 [3]: 9.12 µM (active)

Cc1cc(OCC(=O)Nc2ccc(N3CCN(C)CC3)cc2)ccc1Cl
EC50 [1]: 2.66 µM (active)

CC1CCN(S(=O)(=O)c2ccc3c(c2)N(CC(=O)NCCN2C(C)CCCC2C)C(=O)CS3)CC1 (stereo not given)
IC50 [3]: 11.3 µM (active)

COc1ccc(OCC(=O)N2CCN(C(=O)COc3ccc(Br)cc3)CC2)cc1
IC50 (Aminopeptidase N): 59.2 µM (active)

O=C(O)c1cccc(NC(=S)NC(NC(=O)c2ccco2)C(Cl)(Cl)Cl)c1 (stereo not given)
EC50 [6]: > 195 µM (not active) | IC50 (Aminopeptidase N): 39.9 µM (active)

From ChEMBL document CHEMBL1201862, “PubChem BioAssay data set” (2004)
